# Experimental data published in patent US6713665B2, “Maize NPR1 promoter and methods of use in plant gene expression” (Pioneer Hi-Bred International, Inc., priority 1999, dated 2004).
# Tested on: PR1#81::GUS
# Test: Effects of defense elicitors on PR1#81::GUS expression in bombarded GS3 immature embryos
# Format: cell-based, maize
# Conditions: 1 mM salicylic acid or 0.1 mM jasmonic acid, 20-24 h; for PR1#81::GUS expression in the absence of exogenous NPR1: PR1#81::GUS alone; for PR1#81::GUS expression in the presence of exogenous NPR1: co-bombarded with Ubi::NPR1
# Protocol: To evaluate the effects of defense elicitors on PR1#81::GUS expression with or without overexpression of NPR1, three experiments with a total of five replications were performed. GS3 immature embryos were bombarded with either PRI#81::GUS alone or in combination with Ubi::NPR1. Twenty-four hours after bombardment the embryos were treated with either 50 µg/ml of chitosan, 1 mM salicylic acid, or 0.1 mM jasmonic acid diluted in liquid osmotic medium. The embryos were then cultured at 28° C. for twenty to twenty-four hours before the histochemical GUS staining at 37° C. Visual observation of blue spots by histochemical GUS staining was used for interpretation of the transient assay results.
SMILES,PR1#81::GUS expression in the absence of exogenous NPR1,PR1#81::GUS expression in the presence of exogenous NPR1
CC/C=C\C[C@H]1C(=O)CC[C@@H]1CC(=O)O [jasmonic acid],suppressed,suppressed
O=C(O)c1ccccc1O [salicylic acid],up regulated,up regulates
